From patent US11473153B2, “Device and methods of using device for separation of bacteria from complex samples” (priority 2014, dated 2022)
Where two headings read alike, the source gives them in different places.

Tests used:
bacteria = conditions: cited from earlier work
S. typhimurium [1] = test: Four-channel membrane microfluidic chip, separation by chemoattractant (FIG. 9B); type: cell-based
From the text: FIG. 9A depicts a diagram of a microfluidic chip with four channels that overlap in the vertical direction, with each channel being separated by a semipermeable membrane. Each channel has an inlet/outlet on either end of the chip, each channel can be filled using regular pipettes. The four channels overlap in the vertical direction to maximize contact are amongst channels and optimizes the time required for the chemical gradients to form. The membranes between the channels prevent fluid flow while allowing the chemical gradients to form and bacteria to migrate between the channels. […] The contents of each channel was extracted after approximately 30 minutes and the bacterial density measured using a cell counter (left hand bar in each column). […] Control experiments were also performed to evaluate random dispersion of bacteria to channels 1 and 3 filled with buffer; very few of the bacteria moved away from channel 2 without the present of the chemoattractant (middle bars in each column).

S. typhimurium [2] = test: Microliter-scale sample chamber device, separation run (FIG. 12); type: cell-based; conditions: 30 minutes
Procedure: Experimental and control separation runs were performed in the device and results recorded as disclosed below. FIG. 12 depicts an experimental run on the device in which 2 mM of alpha-methylaspartate (chemo-attractant) was diluted in chemotaxis buffer was introduced in the extraction chamber. […] Deionized water was introduced in the repellent chamber. After 30 minutes, the contents of each chamber was recovered and the amount of bacteria in each chamber counted.

[3] = system: unspecific bacteria grown from dirt
E. coli O157H7 = conditions: Eth20%/GroundMeat + O157H7/Media, 30 min, 1.5 ml device
S. typhimurium [4] = conditions: Eth20%/Media + Salmonella/Media, 1.5 ml device

SMILES	Chemoattractant (bacteria for which the substance is one) (bacteria)	Chemorepellent (bacteria for which the substance is one) (bacteria)	other results
CC(=O)O [Acetate]	C. vinosum	E. coli, S. typhimurium	
CC(N)(CC(=O)O)C(=O)O (stereo not drawn) [α-methyl aspartate]			bacterial density per channel (cell counter) (S. typhimurium [1]; 2 mM in channel 1, S. typhimurium in channel 2, buffer in channel 3, approximately 30 minutes): most bacteria crossed over to the channel containing maximal concentration of chemoattractant; bacterial density per channel, gravity control (S. typhimurium [1]; buffer and chemoattractant introduced through the opposite channels): the results were the same; concentration of bacteria in the extraction chamber normalized to the initial concentration (S. typhimurium [2]; 2 mM in chemotaxis buffer in extraction chamber, sample chamber about 110 μL): about 2 times higher than the initial concentration; bacteria in the repellent chamber (S. typhimurium [2]; 2 mM in extraction chamber, deionized water in repellent chamber): no bacteria were found
OC[C@H]1O[C@H](O[C@H]2[C@H](O)[C@@H](O)C(O)O[C@@H]2CO)[C@H](O)[C@@H](O)[C@@H]1O (mixture of isomers) [Maltose]	E. coli	(no effect on S. typhimurium)	
O=C(O)c1ccccc1 [Benzoate]	P. putida	E. coli, S. typhimurium	
CC(C)C[C@H](N)C(=O)O [Leucine]	B. subtilis	E. coli, S. typhimurium	
[H+] [H^+]	R. sphaeroids	E. coli, C. vinosum	
N[C@@H](Cc1c[nH]c2ccccc12)C(=O)O [Tryptophan]	B. subtilis, C. vinosum	E. coli, S. typhimurium	
[Ni+2] [Ni^2]	(no effect on S. typhimurium)	E. coli	
[Co+2] [Co^2+]	(no effect on S. typhimurium)	E. coli	
O=C(O)CC(O)(CC(=O)O)C(=O)O [Citrate]	S. typhimurium	(no effect on E. coli)	
CC(C)[C@H](N)C(=O)O [Valine]	B. subtilis	E. coli, S. typhimurium	
O [OH^−]	R. sphaeroids	E. coli, C. vinosum	
CCO [Eth20%, Ethanol]			movement of bacteria over time ([3]; 50% ethanol chemorepellent gradient, FIG. 4B/4C): clearly seen moving away from the ethanol; state of bacteria next to the maximum concentration of ethanol ([3]; 50% ethanol chemorepellent in horizontal channel, FIG. 4B): non-motile and putatively dead; E: extraction efficiency (E. coli O157H7; Meat diluted 1:1): 77.60%; E: extraction efficiency (E. coli O157H7; Meat diluted 1:2): 109.80%; E: extraction efficiency (E. coli O157H7; Meat diluted 1:3): 57.00%; E: extraction efficiency (S. typhimurium [4]; 25 min): 76.4% + −8%; E: extraction efficiency (S. typhimurium [4]; 30 min): 87.9% + −7%
Oc1ccccc1 [Phenol]	E. coli	S. typhimurium	
